Laboratory results reported in US20120003661A1, “METHODS AND DEVICES FOR THE SELECTIVE DETECTION OF MICROORGANISMS” (C3 JIAN, INC., priority 2010, published 2012).
“Also recorded” adds a separate entry of the source.

The substances below were run on S. mutans (assay: MIC of antimicrobial peptides (Table 4)). Settings: not given.
Type: cell-based, Streptococcus mutans

Substance | Organism MIC
LLKLLKLKKLKF [K-19] | S. mutans, 16 μM
FIRKFLKKWLL [K-9] | S. mutans, 4 μM
LRKNLRWLF [K-15] | S. mutans, 4 μM
KILKFLFKKVF [K-8] | S. mutans, 4 μM
GLGRVIGRLIKQIIWRR [K-1] | S. mutans, 25 μM
GIFKKFVKILYKVQKL [K-22] | S. mutans, 8 μM
FLKFLKKFFKKLKY [K-20] | S. mutans, 8 μM
NYRLVNAIFSKIFKKKFIKF [K-7] | S. mutans, 12.5 μM
KKFKKFKVLKIL [K-18] | S. mutans, 16 μM
FTRKFLKFLHL [K-17] | S. mutans, 8 μM

Each substance was assayed on bacteria, fungi, and/or yeasts (assay: not given). Settings: microorganism(s) listed as target(s) of the targeting peptide; wrapped target lists given cell by cell.
Type: binding

Substance | Target(s)
1T-283 (LCTKLEDKQRGRIPAELFIISPIKILERNDAL) | A. naeslundii, F. nucleatum, P. gingivalis,; also recorded: T. denticola, S. epidermidis,; also recorded: S. gordonii, S. mitis,; also recorded: S. mutans, S. oralis, S. salivarious,; also recorded: S. sanguinis
1T-274 (ETTTEINAIKLHRIKQRSPQGTRRVN) | F. nucleatum, S. mutans, S. oralis,; also recorded: S. sanguinis
PF-049 (AYYLKRREEKGK) | S. epidermidis, MRSA, C. jeikeium,; also recorded: C. jejuni
PF-158 (VRLESRPADLPE) | S. epidermidis
1T-291 (DMKIIKLYIKILSFLFIKYCNKKLNSVKLKA) | A. naeslundii, F. nucleatum, P. gingivalis,; also recorded: T. denticola, S. mitis,; also recorded: S. mutans, S. oralis
PF-099 (EIIAYLEGRFANA) | S. epidermidis, M. luteus, E. coli,; also recorded: C. jeikeium
Rv2369c (VRQVPVDRPESRHQKPGDVPRDPRC) | C. albicans
1T-276 (ILTLLILGSIGFFILKIKLKLGRF) | A. naeslundii, F. nucleatum, P. gingivalis,; also recorded: S. epidermidis, S. gordonii,; also recorded: gordonii, S. mitis, S. mutans, S. oralis,; also recorded: S. sanguinis
PF-071 (HCVIGNVVDIANLLKRRAVYRDIADVIKMR) | S. epidermidis, E. coli, P. aeruginosa,; also recorded: C. albicans, MRSA,; also recorded: S. pneumoniae, E. faecalis, C. jeikeium,; also recorded: C. jejuni
PF-129 (MKLLARDPWVCAWNDIW) | S. epidermidis, MRSA, E. faecalis,; also recorded: C. jeikeium, C. jejuni
PF-034 (EPKKKHFPKMESASSEP) | M. luteus
PF-063 (IAAIIVLVLFQKGLLQIFNWILIQLQ) | S. epidermidis, M. luteus, E. coli,; also recorded: P. aeruginosa, MRSA, S. pneumoniae,; also recorded: E. faecalis, C. jeikeium,; also recorded: C. jejuni
PF-031 (MPHHSTTSSRIVVPAHQSNMASTPNLSITP) | M. luteus, C. albicans
1T-297 (RSLRLNNALTKLPKLWYNRIKEAFYAYNDYDK) | A. naeslundii, F. nucleatum, T. denticola,; also recorded: S. mitis, S. mutans, S. oralis
1T-298 (ILNKKPKLPLWKLGKNYFRRFYVLPTFLA) | A. naeslundii, F. nucleatum, P. gingivalis,; also recorded: T. denticola, S. gordonii,; also recorded: S. mitis, S. mutans, S. oralis,; also recorded: S. salivarious, S. sanguinis
PF-172 (LTGVRRPWRAPWAGTSGWALR) | S. epidermidis, M. luteus, E. coli,; also recorded: P. aeruginosa, MRSA, E. faecalis,; also recorded: C. jejuni
PF-631 (LIIYFSKTGNTARATRQI) | yeast and hyphal forms
1T-256 (KGKSLMPLLKQINQWGKLYL) | S. sanguinis
PF-074 (RDIHPIYFMTKD) | S. epidermidis, M. luteus, MRSA
PF-139 (ALSKPAIQARTLCRRQDPP) | S. epidermidis, M. luteus, P. mirabilis,; also recorded: E. coli, P. aeruginosa,; also recorded: C. albicans, S. pneumoniae, E. faecalis,; also recorded: C. jeikeium, C. jejuni
1T-15 (DVILRVEAQ) | yeast and hyphal forms
PF-543 | C. albicans hyphae
PF-027 (HNARKYLEFISQKIDGDKLTKEDSL) | M. luteus, MRSA, E. faecalis, C. jejuni
TT-305 (ARNALNMRDVPVDAAIIGIIDGMDEE) | F. nucleatum

Same assay, conditions: microorganism(s) that the targeting peptide binds, as listed in Table 2

Substance | Target(s)
PF-796 (YTQSNIPTAYALMLSNKDSI) | S. mutans
PF-C072 (KKMFSLIRKVNWIFFILFIVLDLTNVFPLIRTILFAILSRQ) | A. naeslundii, F. nucleatum, P. gingivalis,; also recorded: S. mutans, T. denticola
PF-C064 (DEEALEMGANLYAQFAIDFLNSKK) | A. naeslundii, F. nucleatum, P. gingivalis,; also recorded: S. mutans, T. denticola
PF-C062 (PLARATEVVATLFIICSLLLYLTR) | A. naeslundii, F. nucleatum, P. gingivalis,; also recorded: S. mutans, T. denticola
PF-S004 (VLLNIFRTLLEFFSPSNAPGAEDVPLPDTQA) | S. epidermidis, MRSA, C. jeikeium
PF-C291 (HPFLTGTGCPLFLIFRLFFVKAYFSFTVF) | A. naeslundii, F. nucleatum, P. gingivalis,; also recorded: S. mutans
PF-C085 (KKFKIFVIINWFYHKYIILNFEENF) | A. naeslundii, F. nucleatum, P. gingivalis,; also recorded: S. mutans, T. denticola
PF-785 (MRPQHSPAGKAFVVKKITHEQS) | Mycobacteria spp.
PF-787 (MTERQRRALLKQHPEVVSWSDYLEKRKRRTGTAG) | Mycobacteria spp.
PF-C290 (GNVHPESDFHNLIQFIKTFLYFTIFFKYFL) | A. naeslundii, F. nucleatum, P. gingivalis,; also recorded: S. mutans, T. denticola
PF-C136 (LILSYQASVYPLFAYLCQQKDY) | A. naeslundii, F. nucleatum, P. gingivalis,; also recorded: S. mutans, T. denticola

Same assay, conditions: microorganism(s) the targeting peptide binds, as listed in Table 2

Substance | Target(s)
1T-59 (AVGNNLGKDNDSGHRGKKHRKHKHR) | S. aureus, S. epidermidis, P. aeruginosa
1T-34 (AFWLNILLTLLGYIPGIVHAVYIIAKR) | S. aureus, S. epidermidis, C. jeikeium,; also recorded: C. xerosis, C. striatum,; also recorded: P. aeruginosa
1T-63 (EPLILKELVRNLFLFCYARALR) | S. aureus, S. epidermidis, C. jeikeium,; also recorded: C. xerosis, C. striatum,; also recorded: P. aeruginosa
1T-170 (AYGKVFSMDIMLSENDKLIVLRISHHSAWH) | P. gingivalis
1T-8 (FSVAACGEQRAVTFVLLIEDLI) | M. xanthus
1T-226 (KLQEKQIDRNFERVSGYSTYRAVQAAKAKEKGFISLEN) | A. naeslundii, F. nucleatum, S. epidermidis,; also recorded: S. gordonii, S. mitis,; also recorded: S. mutans, S. oralis, S. salivarious,; also recorded: S. sanguinis
1T-119 (SPATQKAPTRAQPSRAPVQDCGDGRPTAAPDDVERLSPR) | S. gordonii, S. mitis, S. mutans,; also recorded: S. oralis
1T-28 (VSRDEAMEFIDREWTTLQPAGKSHA) | P. aeruginosa
1T-49 (SLVRIHDQQPWVTRGAFIDAARTCS) | S. aureus, S. epidermidis, C. jeikeium,; also recorded: P. aeruginosa
1T-105 (GEGLPPPVLHLPPPRMSGR) | S. epidermidis, S. gordonii, S. mitis,; also recorded: S. mutans, S. oralis
1T-97 (GVAERNLDRITVAVAIIWTITIVGLGLVAKLG) | A. naeslundii, F. nucleatum, P. gingivalis,; also recorded: S. epidermidis, S. gordonii,; also recorded: S. mitis, S. mutans, S. oralis,; also recorded: S. salivarious, S. sanguinis
1T-45 (WTKPSFTDLRLGFEVTLYFANR) | S. aureus, S. epidermidis, C. striatum,; also recorded: P. aeruginosa
1T-111 (GRLSRREEDPATSIILLRGAYRMAVF) | A. naeslundii, F. nucleatum, P. gingivalis,; also recorded: S. epidermidis, S. gordonii,; also recorded: S. mitis, S. mutans, S. oralis,; also recorded: S. salivarious, S. sanguinis
1T-87 (EAVGQDLVDAHHP) | S. mitis, S. mutans, S. oralis
1T-182 (LTASICRQWNDNSTPYQR) | A. naeslundii, F. nucleatum, P. gingivalis,; also recorded: T. denticola, S. gordonii,; also recorded: S. mitis, S. mutans, S. oralis,; also recorded: S. salivarious, S. sanguinis
1T-175 (GEPGSHSGDL) | A. naeslundii, F. nucleatum, P. gingivalis,; also recorded: S. epidermidis, S. gordonii,; also recorded: S. mitis, S. mutans, S. oralis,; also recorded: S. salivarious, S. sanguinis
1T-117 (GPGVVGPAPFSRLPAHALNL) | S. mutans

Substance | Target(s)
1T-148 (IVELDDTTILERALSMLGEANA) | A. naeslundii, F. nucleatum, P. gingivalis,; also recorded: T. denticola, S. gordonii,; also recorded: S. mitis, S. mutans, S. oralis,; also recorded: S. salivarious, S. sanguinis
1T-176 (PVGDIMSGFLRGANQPRFLLDHISFGS) | A. naeslundii, P. gingivalis, S. epidermidis,; also recorded: S. gordonii, S. mitis,; also recorded: S. mutans, S. oralis, S. salivarious,; also recorded: S. sanguinis
1T-215 (VCFKDISVFLSPFRGQEVLFCGKAKHSLIYVIGT) | S. sanguinis
1T-155 (LKLAFGVYPFQAMSQSDTAVSERNVLWR) | A. naeslundii, F. nucleatum, P. gingivalis,; also recorded: S. epidermidis, S. gordonii,; also recorded: S. mitis, S. mutans, S. oralis,; also recorded: S. salivarious, S. sanguinis
1T-38 (VMFVLTRGRSPRPMIPAY) | S. mutans, S. aereus, S. epidermidis,; also recorded: C. jeikeium, C. xerosis,; also recorded: C. striatum, P. aeruginosa
1T-7 (SQRIIEPVKSPQPYPGFSVS) | M. xanthus
1T-40 (QRVSLWSEVEHEFR) | S. mutans, P. aeruginosa
1T-125 (DAITGGNPPLSDTDGLRP) | S. epidermidis, S. gordonii, S. mutans,; also recorded: S. oralis
1T-27 (ALFVSLEQFLVVVAKSVFALCHSGTLS) | S. mutans, S. aureus, S. epidermidis,; also recorded: C. jeikeium, C. xerosis,; also recorded: C. striatum, P. aeruginosa
1T-15 (DVILRVEAQ) | S. mutans
1T-58 (CDDLHALERAGKLDALLSA) | P. aeruginosa
1T-78 (FFKTIFVLILGALGVAAGLYIEKNYIDK) | S. pneumoniae
1T-144 (IIELHPKSWTQDWRCSFL) | A. naeslundii, F. nucleatum, P. gingivalis,; also recorded: T. denticola, S. gordonii,; also recorded: S. mitis, S. mutans, S. oralis,; also recorded: S. salivarious, S. sanguinis
1T-218 (KLIFAALGLVFLLIGLRDSRSK) | F. nucleatum, S. sanguinis
1T-67 (GQRQRLTCGRVSGCSEGPSREAAR) | S. aureus, S. epidermidis, C. jeikeium,; also recorded: C. xerosis, C. striatum,; also recorded: P. aeruginosa
1T-32 (VSFLAGWLCLGLAAWRLGNA) | S. mutans
